Measurements from patent US12043602B2, “Fendiline derivatives” (The Board of Regents of the University of Texas System, priority 2019, dated 2024).

Tests used:
[1] = molecular target: T1, mGFP-K-RASG12V (Homo sapiens (Human), UniProt P01116, G12V); assay: K-Ras mislocalization assay (confocal microscopy, Manders coefficient); type: cell-based; design: key to Emax: Manders coefficient: fraction of mCherry-CAAX co-localizing with GFP-K-Ras; settings: MDCK cells; for Emax: maximal effect, Manders coefficient
Summary of the method: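 MDCK cells stably co-expressing mGFP-K-RASG12V and mCherry-CAAX (endomembrane marker) treated with compound or 0.1% DMSO for 48 h, fixed in 4% paraformaldehyde, imaged by confocal microscopy. Mislocalization quantified as the fraction of mCherry-CAAX co-localizing with mGFP-K-RASG12V (Manders coefficient) after 8-bit thresholding.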

[2] = tested on: BxPC-3 (WT) pancreatic tumor cells; assay: CyQUANT proliferation assay; type: cell-based; design: key to IC50 proliferation BxPC-3 (WT): NE—Not efficacious
Procedure: (§1) Madine Darby Canine Kidney epithelial cells (MDCK) stably co-expressing mGFP-tagged full length oncogenic mutant K-Ras (GFP—K-RASG12V) or mGFP-LactC2 (peptide probe for phosphatidylserine) and mCherry-tagged to the amino acids 179-189 of H-RasC181S, C184S (mCherry-CAAX, localizes primarily to endomembranes) were grown in DMEM-high glucose/sodium pyruvate/10% FBS. The medium was supplemented with 1× Penicillin/Streptomycin for fluorescence microscopy assays, to avoid any microbial contamination from the test compounds added. KLE and Hec50 cells were maintained in DMEM-F-12 medium supplemented with 10% FBS. Hec-1A and Hec-1B cells were grown in McCoy's 5a medium supplemented with 10% FBS. ESS-1 cells were grown in RPMI 1640 medium supplemented with 20% FBS. MPanc96 cells were grown in DMEM supplemented with 10% FBS, MiaPaCa-2 cells in DMEM supplemented with 10% FBS and 2.5% horse serum and all other cell lines were grown in RPMI 1640 supplemented with 10% FBS. All cancer cell media were supplemented with ×Penicillin/Streptomycin. All cell lines were grown at 37° C. with 5% CO2.
(§2) Cells were seeded in 96-well plates. After 24 h, fresh growth medium supplemented with 0.1% vehicle (DMSO), or various concentrations of drugs was added and cells were grown for 72 h. Cell numbers were quantified using the CyQUANT® Cell Proliferation Assay Kit (Molecular Probes, Life Technologies), according to the manufacturer's protocol. Fluorescence measurement was used as a measure of live cell number.

[3] = tested on: MOH (Mut) pancreatic tumor cells; assay: CyQUANT proliferation assay; type: cell-based; design: key to IC50 proliferation MOH (Mut): NE—Not efficacious
Procedure: as §1, §2

[4] = tested on: HPAC (Mut) pancreatic tumor cells; assay: CyQUANT proliferation assay; type: cell-based; design: key to IC50 proliferation HPAC (Mut): NE—Not efficacious; settings: 72 h
Procedure: as §1, §2

[5] = tested on: NCI H522 (WT) lung tumor cells; assay: CyQUANT proliferation assay; type: cell-based; design: key to IC50 proliferation NCI H522 (WT): NE—Not efficacious
Procedure: as §1, §2

[6] = tested on: NCI-H23 (Mut) lung tumor cells; assay: CyQUANT proliferation assay; type: cell-based; design: key to IC50 proliferation NCI-H23 (Mut): NE—Not efficacious
Procedure: as §1, §2

[7] = tested on: H1925 (WT) lung tumor cells; assay: CyQUANT proliferation assay; type: cell-based; design: key: NE—Not efficacious; settings: 72 h
Procedure: as §1, §2

[8] = tested on: KLE (WT) endometrial tumor cells; assay: CyQUANT proliferation assay; type: cell-based; design: key: NE—Not efficacious; settings: 72 h
Procedure: as §1, §2

[9] = tested on: SW1116 (Mut) colon tumor cells; assay: CyQUANT proliferation assay; type: cell-based; design: key: NE—Not efficacious; settings: 72 h
Procedure: as §1, §2

[10] = tested on: Ishikawa (WT) endometrial tumor cells; assay: CyQUANT proliferation assay; type: cell-based; design: key to IC50 proliferation Ishikawa (WT): NE—Not efficacious
Procedure: as §1, §2

[11] = tested on: MDCK cells co-expressing GFP-K-RASG12V and mCherry-CAAX; assay: Cytotoxicity in mislocalization screen (death of all cells in well); settings: drug caused death of all cells in well at 30 μM
[12] = tested on: MiaPaCa-2 (Mut) pancreatic tumor cells; assay: CyQUANT proliferation assay; type: cell-based; settings: Table 11, pancreatic; read-out: IC50 (μM) MiaPaCa-2 (Mut)
Procedure: as §1, §2

[13] = tested on: MPanc96 (Mut) pancreatic tumor cells; assay: CyQUANT proliferation assay; type: cell-based; settings: Table 11, pancreatic; read-out: IC50 (μM) MPanc96 (Mut)
Procedure: as §1, §2

[14] = tested on: NCI H1975 (WT) lung tumor cells; assay: CyQUANT proliferation assay; type: cell-based; settings: Table 11, lung
Procedure: as §1, §2

[15] = tested on: CaCO-2 (WT) colon tumor cells; assay: CyQUANT proliferation assay; type: cell-based; settings: Table 11, colon; read-out: IC50 (μM) Caco-2 (WT)
Procedure: as §1, §2

[16] = tested on: Hec1A (Mut) endometrial tumor cells; assay: CyQUANT proliferation assay; type: cell-based; settings: Table 11, endometrial; read-out: IC50 (μM) Hec1A (Mut)
Procedure: as §1, §2

[17] = tested on: Hec1B (Mut) endometrial tumor cells; assay: CyQUANT proliferation assay; type: cell-based; settings: Table 11, endometrial; read-out: IC50 (μM) Hec1B (Mut)
Procedure: as §1, §2

[18] = tested on: NCI-H1299 (WT) lung tumor cells; assay: CyQUANT proliferation assay; type: cell-based; settings: Table 11, lung; read-out: IC50 (μM) NCI H1299 (WT)
Procedure: as §1, §2

[19] = tested on: SK-CO-1 (Mut) colon tumor cells; assay: CyQUANT proliferation assay; type: cell-based; settings: Table 11, colon; read-out: IC50 (μM) SK-CO-1 (Mut)
Procedure: as §1, §2

[20] = molecular target: T1, mGFP-K-RASG12V; settings: versus compound 6; background statement; cited from earlier work
[21] = tested on: mutant KRAS expressing cancer cells; settings: at 30 μM; background statement; cited from earlier work

CN1CCN(CCN(CC=C(c2ccccc2)c2ccccc2)[C@@H]2C[C@H]2c2ccccc2)CC1 [NY0590, (1R,2S)-N-(3,3-diphenylallyl)-N-(2-(4-methylpiperazin-1-yl)ethyl)-2-phenylcyclopropan-1-amine]
0.945 µM: EC50 ([1]; batch 4 compounds, 48 h, title calls it IC50, read-out: EC50)
Yes: Cytotoxic at 30 μM [11]
NE: IC50 proliferation BxPC-3 (WT) ([2]; 72 h) | IC50 proliferation MOH (Mut) ([3]; 72 h) | IC50 proliferation HPAC (Mut) [4] | IC50 proliferation NCI H522 (WT) ([5]; 72 h) | IC50 proliferation NCI-H23 (Mut) ([6]; 72 h) | Potency proliferation H1925 (WT) [7] | IC50 proliferation KLE (WT) [8] | Potency proliferation SW1116 (Mut) [9] | IC50 proliferation Ishikawa (WT) ([10]; 72 h)
0.893: Emax ([1]; 48 h)

COc1ccc([C@@H](C)N(CC=C(c2ccccc2)c2ccccc2)CC=C(c2ccccc2)c2ccccc2)cc1 [Compound 7, reference compound]
did not show any cytotoxic and No: Cytotoxic at 30 μM [11]
> 30 µM: IC50 ([2]; Table 11, pancreatic, read-out: IC50 (μM) BxPC-3 (WT)) | IC50 [12] | IC50 ([3]; Table 11, pancreatic, read-out: IC50 (μM) MOH (Mut)) | IC50 [13] | IC50 [14] | IC50 ([5]; Table 11, lung, read-out: IC50 (μM) NCI H522 (WT)) | IC50 [15] | IC50 [16] | IC50 [17] | IC50 [18] | IC50 [19] | IC50 ([6]; Table 11, lung, read-out: IC50 (μM) NCI H23 (Mut)) | IC50 ([10]; Table 11, endometrial, read-out: IC50 (μM) Ishikawa (WT))
0.74 ± 0.03: Emax ([1]; 48 h)
0.5 µM: IC50 ([1]; 48 h treatment, read-out: IC50 (μM), KRASG12V mislocalization)
10 fold: fold increased potency [20]
no capability to kill: capability to kill mutant KRAS expressing cancer cells [21]
